Assay results published in patent US9738902B2, “Modified PYR/PYL receptors activated by ligands” (priority 2013, dated 2017).

Experiments:
Type in all cases: cell-based
PYR1 K59R E94A Y120A = target: T1, PYR1 K59R E94A Y120A (Arabidopsis thaliana, UniProt O49686, E94A/K59R/Y120A); test: Y2H Combinatorial Mutagenesis Screen I (HAB1, X-gal)
T1 construct: expressed in transfected cells; host or cells: S. cerevisiae Y190 two-hybrid reporter strain
Excerpt: (§1) This screening approach yielded mutants at ligand contacting residues that alter sensitivity to specific ligands. We reasoned that receptor sensitivity could be improved by systematically constructing combinations of the best mutant variants identified in the first round of screening. To test this, we constructed mutant combinations using the strongest mutations identified for mandipropamid, benzothiadiazole, benoxacor or fludioxonil sensitivity. The mutations selected for combinatorial mutagenesis are listed in bold type in Table 1; The mutant combinations were constructed using the QuickChange Lightning Multi Site-Directed PCR Mutagenesis kit (Agilent, USA) using pBD-PYR1^K59R template DNA and mutagenic primers, essentially as previously described (Mosquna et al., 2011). The mutant combinations were sequence validated, introduced into the pACT-HAB1 Y190 reporter strain and then tested for responsiveness to a range of compound concentrations (100, 50, 25, 10, 1, 0.2, 0.1 or 0 μM each test compound). These efforts yielded double mutant receptor variants with improved sensitivity for the 4 compound/receptor pairs examined (see entries labeled “Combinatorial Mutagenesis Screen I” in Table 1).

PYR1 K59R Y120A N167C = target: T2, PYR1 K59R Y120A N167C (Arabidopsis thaliana, UniProt O49686, K59R/N167C/Y120A); test: as above
T2 construct: expressed in transfected cells; host or cells: S. cerevisiae Y190 two-hybrid reporter strain
Excerpt: as §1

PYR1 K59R E94A N167C = target: T3, PYR1 K59R E94A N167C (Arabidopsis thaliana, UniProt O49686, E94A/K59R/N167C); test: as above
T3 construct: expressed in transfected cells; host or cells: S. cerevisiae Y190 two-hybrid reporter strain
T3 sequence (O49686 whole entry K59R/E94A/N167C): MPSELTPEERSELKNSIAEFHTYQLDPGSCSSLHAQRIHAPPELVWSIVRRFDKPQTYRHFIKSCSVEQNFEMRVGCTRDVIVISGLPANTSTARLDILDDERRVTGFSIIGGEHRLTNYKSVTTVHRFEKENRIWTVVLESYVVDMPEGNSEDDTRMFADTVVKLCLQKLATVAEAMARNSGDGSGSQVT
T3 sequence (Q9CAJ0 23-511 partner): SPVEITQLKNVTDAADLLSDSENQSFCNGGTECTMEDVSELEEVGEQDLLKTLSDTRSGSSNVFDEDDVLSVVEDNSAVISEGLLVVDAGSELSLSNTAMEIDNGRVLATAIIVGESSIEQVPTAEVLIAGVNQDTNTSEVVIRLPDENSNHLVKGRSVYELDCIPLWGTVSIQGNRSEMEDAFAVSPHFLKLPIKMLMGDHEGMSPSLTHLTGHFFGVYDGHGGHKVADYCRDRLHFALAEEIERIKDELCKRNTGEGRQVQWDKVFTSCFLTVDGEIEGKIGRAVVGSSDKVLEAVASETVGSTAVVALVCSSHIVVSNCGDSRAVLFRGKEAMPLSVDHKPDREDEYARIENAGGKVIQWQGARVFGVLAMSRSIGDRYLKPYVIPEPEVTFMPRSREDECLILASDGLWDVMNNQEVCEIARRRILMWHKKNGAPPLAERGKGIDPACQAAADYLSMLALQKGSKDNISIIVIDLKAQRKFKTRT
Excerpt: as §1

PYR1 K59R Y120A E141Y = target: T4, PYR1 K59R Y120A E141Y (Arabidopsis thaliana, UniProt O49686, E141Y/K59R/Y120A); test: as above
T4 construct: expressed in transfected cells; host or cells: S. cerevisiae Y190 two-hybrid reporter strain
Excerpt: as §1

PYR1 K59R A160C = target: T5, PYR1 K59R A160C (Arabidopsis thaliana, UniProt O49686, A160C/K59R); test: Y2H Pocket Library Screen (HAB1, X-gal)
T5 construct: expressed in transfected cells; host or cells: S. cerevisiae Y190
Experimental: (§2) The set of 475 mutant plasmids were individually transformed into the Y190 yeast two hybrid reporter strain co-transformed with pACT-HAB1, as previously described (Park et al., 2009). The yeast strains generated were arrayed into 96-well plates yielding what we refer to as the “pocket library”. The pocket library strains were spotted onto agar plates containing selective synthetic dextrose (minus Leu & Trp) medium that was supplemented with a single test compound at 100 μM. The pocket library strains were separately tested for responsiveness to the following compounds: dichlobenil, benzothiadiazole, mandipropamid, fludioxonil, and benoxacor. After incubating test plates at 30° C. for two days, colonies were chloroform lysed and stained to reveal β-galactosidase expression levels, using previously described methods (Park et al., 2009). Mutants displaying responsiveness to the test compound, if present, were identified by virtue of X-gal staining and then subjected to subsequent optimization efforts. Using this approach we identified mutations that conferred detectable sensitivity to the compounds tested (see entries labeled “Pocket Library Screens” in Table 1).

PYR1 K59R V83L = target: T6, PYR1 K59R V83L (Arabidopsis thaliana, UniProt O49686, K59R/V83L); test: Y2H Pocket Library Screen (HAB1, X-gal)
T6 construct: expressed in transfected cells; host or cells: S. cerevisiae Y190 yeast two-hybrid reporter strain
T6 sequence (O49686 whole entry K59R/V83L): as the sequence (O49686 whole entry K59R/E94A/N167C) above, with V83L, A94E, C167N counted along it
T6 sequence (Q9CAJ0 23-511, further chain): as the sequence (Q9CAJ0 23-511 partner) above
Experimental: as §2

PYR1 K59R T162W = target: T7, PYR1 K59R T162W (Arabidopsis thaliana, UniProt O49686, K59R/T162W); test: Y2H Pocket Library Screen (HAB1, X-gal)
T7 construct: expressed in transfected cells; host or cells: S. cerevisiae Y190
Experimental: as §2

PYR1 K59R M158C = target: T8, PYR1 K59R M158C (Arabidopsis thaliana, UniProt O49686, K59R/M158C); test: Y2H Pocket Library Screen (HAB1, X-gal)
T8 construct: expressed in transfected cells; host or cells: S. cerevisiae Y190 two-hybrid reporter strain
Experimental: as §2

PYR1 K59R E94D = target: T9, PYR1 K59R E94D (Arabidopsis thaliana, UniProt O49686, E94D/K59R); test: Y2H Pocket Library Screen (HAB1, X-gal)
T9 construct: expressed in transfected cells; host or cells: S. cerevisiae Y190 yeast two-hybrid reporter strain
T9 sequence (O49686 whole entry K59R/E94D): as the sequence (O49686 whole entry K59R/E94A/N167C) above, with A94D, C167N counted along it
T9 sequence (Q9CAJ0 23-511 partner): as the sequence (Q9CAJ0 23-511 partner) above
Experimental: as §2

PYR1 K59R Y120M = target: T10, PYR1 K59R Y120M (Arabidopsis thaliana, UniProt O49686, K59R/Y120M); test: Y2H Pocket Library Screen (HAB1, X-gal)
T10 construct: expressed in transfected cells; host or cells: S. cerevisiae Y190 two-hybrid reporter strain
Experimental: as §2

PYR1 K59R N167H = target: T11, PYR1 K59R N167H (Arabidopsis thaliana, UniProt O49686, K59R/N167H); test: Y2H Pocket Library Screen (HAB1, X-gal)
T11 construct: expressed in transfected cells; host or cells: S. cerevisiae Y190 two-hybrid reporter strain
T11 sequence (O49686 whole entry K59R/N167H): as the sequence (O49686 whole entry K59R/E94A/N167C) above, with A94E, C167H counted along it
T11 sequence (Q9CAJ0 23-511 partner): as the sequence (Q9CAJ0 23-511 partner) above
Experimental: as §2

PYR1 K59R V81I = target: T12, PYR1 K59R V81I (Arabidopsis thaliana, UniProt O49686, K59R/V81I); test: Y2H Pocket Library Screen (HAB1, X-gal)
T12 construct: expressed in transfected cells; host or cells: S. cerevisiae Y190 yeast two-hybrid reporter strain
Experimental: as §2

PYR1 K59R E94A = target: T13, PYR1 K59R E94A (Arabidopsis thaliana, UniProt O49686, E94A/K59R); test: Y2H Pocket Library Screen (HAB1, X-gal)
T13 construct: expressed in transfected cells; host or cells: S. cerevisiae Y190 yeast two-hybrid reporter strain
Experimental: as §2

PYR1 K59R Y120A = target: T14, PYR1 K59R Y120A (Arabidopsis thaliana, UniProt O49686, K59R/Y120A); test: Y2H Pocket Library Screen (HAB1, X-gal)
T14 construct: expressed in transfected cells; host or cells: S. cerevisiae Y190 two-hybrid reporter strain
T14 sequence (O49686 whole entry K59R/Y120A): as the sequence (O49686 whole entry K59R/E94A/N167C) above, with A94E, Y120A, C167N counted along it
T14 sequence (Q9CAJ0 23-511 partner): as the sequence (Q9CAJ0 23-511 partner) above
Experimental: as §2

PYR1 K59R N167V = target: T15, PYR1 K59R N167V (Arabidopsis thaliana, UniProt O49686, K59R/N167V); test: Y2H Pocket Library Screen (HAB1, X-gal)
T15 construct: expressed in transfected cells; host or cells: S. cerevisiae Y190 two-hybrid reporter strain
Experimental: as §2

PYR1 K59R N167C = target: T16, PYR1 K59R N167C (Arabidopsis thaliana, UniProt O49686, K59R/N167C); test: Y2H Pocket Library Screen (HAB1, X-gal)
T16 construct: expressed in transfected cells; host or cells: S. cerevisiae Y190 two-hybrid reporter strain
Experimental: as §2

PYR1 K59R M158T = target: T17, PYR1 K59R M158T (Arabidopsis thaliana, UniProt O49686, K59R/M158T); test: Y2H Pocket Library Screen (HAB1, X-gal)
T17 construct: expressed in transfected cells; host or cells: S. cerevisiae Y190 two-hybrid reporter strain
Experimental: as §2

PYR1 K59R S92F = target: T18, PYR1 K59R S92F (Arabidopsis thaliana, UniProt O49686, K59R/S92F); test: Y2H Pocket Library Screen (HAB1, X-gal)
T18 construct: expressed in transfected cells; host or cells: S. cerevisiae Y190 yeast two-hybrid reporter strain
Experimental: as §2

PYR1 K59R E141Y = target: T19, PYR1 K59R E141Y (Arabidopsis thaliana, UniProt O49686, E141Y/K59R); test: Y2H Pocket Library Screen (HAB1, X-gal)
T19 construct: expressed in transfected cells; host or cells: S. cerevisiae Y190 two-hybrid reporter strain
Experimental: as §2

PYR1 K59R E94S = target: T20, PYR1 K59R E94S (Arabidopsis thaliana, UniProt O49686, E94S/K59R); test: Y2H Pocket Library Screen (HAB1, X-gal)
T20 construct: expressed in transfected cells; host or cells: S. cerevisiae Y190 yeast two-hybrid reporter strain
Experimental: as §2

PYR1 K59R F159T = target: T21, PYR1 K59R F159T (Arabidopsis thaliana, UniProt O49686, F159T/K59R); test: Y2H Pocket Library Screen (HAB1, X-gal)
T21 construct: expressed in transfected cells; host or cells: S. cerevisiae Y190
Experimental: as §2

PYR1 K59R M158V = target: T22, PYR1 K59R M158V (Arabidopsis thaliana, UniProt O49686, K59R/M158V); test: Y2H Pocket Library Screen (HAB1, X-gal)
T22 construct: expressed in transfected cells; host or cells: S. cerevisiae Y190 two-hybrid reporter strain
Experimental: as §2

PYR1 K59R M158I = target: T23, PYR1 K59R M158I (Arabidopsis thaliana, UniProt O49686, K59R/M158I); test: Y2H Pocket Library Screen (HAB1, X-gal)
T23 construct: expressed in transfected cells; host or cells: S. cerevisiae Y190 two-hybrid reporter strain
Experimental: as §2

PYR1 K59R L87P = target: T24, PYR1 K59R L87P (Arabidopsis thaliana, UniProt O49686, K59R/L87P); test: Y2H Pocket Library Screen (HAB1, X-gal)
T24 construct: expressed in transfected cells; host or cells: S. cerevisiae Y190 yeast two-hybrid reporter strain
Experimental: as §2

PYR1 K59R F108L = target: T25, PYR1 K59R F108L (Arabidopsis thaliana, UniProt O49686, F108L/K59R); test: Y2H Pocket Library Screen (HAB1, X-gal)
T25 construct: expressed in transfected cells; host or cells: S. cerevisiae Y190 yeast two-hybrid reporter strain
Experimental: as §2

PYR1 K59R F159A = target: T26, PYR1 K59R F159A (Arabidopsis thaliana, UniProt O49686, F159A/K59R); test: Y2H Pocket Library Screen (HAB1, X-gal)
T26 construct: expressed in transfected cells; host or cells: S. cerevisiae Y190 two-hybrid reporter strain
Experimental: as §2

PYR1 K59R F159V = target: T27, PYR1 K59R F159V (Arabidopsis thaliana, UniProt O49686, F159V/K59R); test: Y2H Pocket Library Screen (HAB1, X-gal)
T27 construct: expressed in transfected cells; host or cells: S. cerevisiae Y190
T27 sequence (O49686 whole entry K59R/F159V): as the sequence (O49686 whole entry K59R/E94A/N167C) above, with A94E, F159V, C167N counted along it
T27 sequence (Q9CAJ0 23-511, further chain): as the sequence (Q9CAJ0 23-511 partner) above
Experimental: as §2

PYR1 K59R Y120G = target: T28, PYR1 K59R Y120G (Arabidopsis thaliana, UniProt O49686, K59R/Y120G); test: Y2H Pocket Library Screen (HAB1, X-gal)
T28 construct: expressed in transfected cells; host or cells: S. cerevisiae Y190 two-hybrid reporter strain
Experimental: as §2

PYR1 K59R Y120F = target: T29, PYR1 K59R Y120F (Arabidopsis thaliana, UniProt O49686, K59R/Y120F); test: Y2H Pocket Library Screen (HAB1, X-gal)
T29 construct: expressed in transfected cells; host or cells: S. cerevisiae Y190 two-hybrid reporter strain
Experimental: as §2

PYR1 K59R L87F = target: T30, PYR1 K59R L87F (Arabidopsis thaliana, UniProt O49686, K59R/L87F); test: Y2H Pocket Library Screen (HAB1, X-gal)
T30 construct: expressed in transfected cells; host or cells: S. cerevisiae Y190 yeast two-hybrid reporter strain
Experimental: as §2

PYR1 K59R V81Y = target: T31, PYR1 K59R V81Y (Arabidopsis thaliana, UniProt O49686, K59R/V81Y); test: Y2H Pocket Library Screen (HAB1, X-gal)
T31 construct: expressed in transfected cells; host or cells: S. cerevisiae Y190 yeast two-hybrid reporter strain
T31 sequence (O49686 whole entry K59R/V81Y): as the sequence (O49686 whole entry K59R/E94A/N167C) above, with V81Y, A94E, C167N counted along it
T31 sequence (Q9CAJ0 23-511 partner): as the sequence (Q9CAJ0 23-511 partner) above
Experimental: as §2

PYR1 K59R V164K = target: T32, PYR1 K59R V164K (Arabidopsis thaliana, UniProt O49686, K59R/V164K); test: Y2H Pocket Library Screen (HAB1, X-gal)
T32 construct: expressed in transfected cells; host or cells: S. cerevisiae Y190
Experimental: as §2

N#Cc1c[nH]cc1-c1cccc2c1OC(F)(F)O2 [Fludioxonil, fludioxonil]
Threshold (PYR1 K59R E94A Y120A): 10 µM | Threshold (PYR1 K59R Y120A N167C): 10 µM | Threshold (PYR1 K59R E94A N167C): 10 µM | Threshold (PYR1 K59R Y120A E141Y): 10 µM | Threshold (PYR1 K59R A160C): 100 µM | Threshold (PYR1 K59R V83L): 100 µM | Threshold (PYR1 K59R T162W): 100 µM | Threshold (PYR1 K59R M158C): 100 µM | Threshold (PYR1 K59R E94D): 100 µM | Threshold (PYR1 K59R Y120M): 100 µM | Threshold (PYR1 K59R N167H): 100 µM | Threshold (PYR1 K59R V81I): 100 µM | Threshold (PYR1 K59R E94A): 1 µM | Threshold (PYR1 K59R Y120A): 100 µM | Threshold (PYR1 K59R N167V): 100 µM | Threshold (PYR1 K59R N167C): 100 µM | Threshold (PYR1 K59R M158T): 100 µM | Threshold (PYR1 K59R S92F): 100 µM | Threshold (PYR1 K59R E141Y): 100 µM | Threshold (PYR1 K59R E94S): 100 µM | Threshold (PYR1 K59R F159T): 100 µM | Threshold (PYR1 K59R M158V): 100 µM | Threshold (PYR1 K59R M158I): 100 µM | Threshold (PYR1 K59R L87P): 100 µM | Threshold (PYR1 K59R F108L): 100 µM | Threshold (PYR1 K59R F159A): 100 µM | Threshold (PYR1 K59R F159V): 100 µM | Threshold (PYR1 K59R Y120G): 100 µM | Threshold (PYR1 K59R Y120F): 100 µM | Threshold (PYR1 K59R L87F): 100 µM | Threshold (PYR1 K59R V81Y): 100 µM | Threshold (PYR1 K59R V164K): 100 µM
